ChEMBL document CHEMBL1140028, “Heterocyclic alpha-helix mimetics for targeting protein-protein interactions” (Bioorg Med Chem Lett, 2007)
Calls of active or inactive are those of the source. No cut-off for these calls is given here.

Tested on: Bcl-XL (Homo sapiens)
Assay: Binding affinity to Bcl-XL by fluorescence polarization assay

| SMILES | Activity |
| --- | --- |
| CC(C)c1coc(-c2cc(CC3CCCCC3)c(-c3nc(C(C)C)co3)nn2)n1 | Active |
| CC(C)Cc1cc(-c2nc(C(C)C)co2)nnc1-c1nc(C(C)C)co1 | Active |
| CCC(C)C1CN(C(=O)c2cc(Cc3ccccc3)c(-c3nc(CC(C)C)co3)nn2)CCN1C (centres undefined) | Active |
| CC(C)Cc1cc(C(=O)N2CCC[C@@H](OCc3ccccc3)C2)nnc1-c1nc(C(C)C)co1 | Active |
